From patent US20210238173A1, “MITOGEN-ACTIVATED PROTEIN KINASE KINASE 7 INHIBITORS” (Yeda Research and Development Co. Ltd., priority 2018, published 2021)

Tests used:
[1] = molecular target: PIK3CA/PIK3R1 (p110 alpha/p85 alpha) (Homo sapiens, UniProt P42336); test: Kinome selectivity screen PIK3CA/PIK3R1; format: biochemical; details: 1 μM compound
Protocol: (§1) Kinome Selectivity Screen:
(§2) Kinase selectivity was assessed using the Life Technologies SelectScreen Kinase Profiling Service in a custom panel of 76 kinases selected to provide broad representative coverage of all kinase families. Kinase activity assays employed either the Z′-LYTE or Adapta assay technologies with ATP concentrations at or near the KM, ATP for each kinase and a test compound concentration of 1 μM.

CSNK2A1 (CK2 alpha 1) = CSNK2A1 (CK2 alpha 1) (Homo sapiens, UniProt P68400); test: Kinome selectivity screen CSNK2A1; format: biochemical; details: 1 μM compound
Sequence of CSNK2A1 (CK2 alpha 1) (P68400 whole entry): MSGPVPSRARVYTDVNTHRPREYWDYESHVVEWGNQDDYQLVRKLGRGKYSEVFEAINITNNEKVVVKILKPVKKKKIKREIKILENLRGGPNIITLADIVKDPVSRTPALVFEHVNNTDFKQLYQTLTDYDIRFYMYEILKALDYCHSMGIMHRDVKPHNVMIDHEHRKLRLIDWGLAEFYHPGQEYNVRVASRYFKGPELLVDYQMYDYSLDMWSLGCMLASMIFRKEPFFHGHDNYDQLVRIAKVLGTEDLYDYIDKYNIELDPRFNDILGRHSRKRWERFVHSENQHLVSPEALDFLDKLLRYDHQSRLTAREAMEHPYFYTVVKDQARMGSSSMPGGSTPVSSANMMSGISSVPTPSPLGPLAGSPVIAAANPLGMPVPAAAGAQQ
Protocol: as §1, §2

p-cJun in HEK293 cells = test: p-cJun inhibition in HEK293 cells; format: cell-based; details: Homo sapiens
Protocol: (§3) HEK293, Beas2B and 3T3 cells were plated 24 hours before procedure on 384 well clear bottom black flat plates (Corning) pre-coated with Fibronectin (Sigma) diluted in PBS to a concentration of 5 μg/ml 45 minutes prior to cells introduction. Cells were plated using Multidrop™ Combi reagent dispenser (Thermo Fisher Scientific). Compound, reagents and antibody dispensing as well as washes were performed with a CyBio liquid handler (Analytik). Cells were pre-incubated with a small molecule or up to 1% DMSO for 2 h before fixation. HEK293, 3T3 or Beas2B cells were treated with 0.6M/0.2M/0.2M D-Sorbitol/PBS (Sigma) for 20/40/40 min. respectively, before fixation. Media was removed and wells were immediately fixed with 150 μl per well of 3.7% formaldehyde/PBS fixing solution for 20 min. Formaldehyde was then aspired and cells were permeabilized with 150 μl of 0.5% Triton x-100/PBS solution for 10 min. After aspiration cells were washed with ice-cold methanol and stored at −20° C., for 10 min. Methanol was aspired and cells were blocked with 150 μl blocking buffer (LICOR) for 90 min. Primary antibody Phospho-SAPK/JNK T183/Y185 (CST; 9251S) was diluted 1:1000 in blocking buffer and was applied 50 μl per well, except control wells to which only blocking buffer was applied, O.N. (16 h) at 4° C. with mild shaking. […] Wells signals were analyzed with Odyssey software. […]
(§4) To rapidly assess the cellular activity (EC50) with full dose response curves of the MKK7 covalent inhibitors, according to some embodiments of the present invention, an in-cell western assay was adapted to a 384 well plate format over traditional western blot, and monitored phospho-JNK (pJNK) levels in response to osmotic shock. […] The compound's activity was assessed by pre-treating cells with either compound or DMSO for 2 hours, followed by Sorbitol stimulation. The response of pJNK, and its substrates, pc-Jun and pATF2, was measured, as well as pP38, which is a substrate of MKK4 but not MKK7, and pERK in HEK293 cells, and the results are presented in Table 5 below.

MAP3K8 (COT) = MAP3K8 (COT) (Homo sapiens, UniProt P41279); test: Kinome selectivity screen MAP3K8; format: biochemical; details: 1 μM compound
Sequence of MAP3K8 (COT) (P41279 whole entry): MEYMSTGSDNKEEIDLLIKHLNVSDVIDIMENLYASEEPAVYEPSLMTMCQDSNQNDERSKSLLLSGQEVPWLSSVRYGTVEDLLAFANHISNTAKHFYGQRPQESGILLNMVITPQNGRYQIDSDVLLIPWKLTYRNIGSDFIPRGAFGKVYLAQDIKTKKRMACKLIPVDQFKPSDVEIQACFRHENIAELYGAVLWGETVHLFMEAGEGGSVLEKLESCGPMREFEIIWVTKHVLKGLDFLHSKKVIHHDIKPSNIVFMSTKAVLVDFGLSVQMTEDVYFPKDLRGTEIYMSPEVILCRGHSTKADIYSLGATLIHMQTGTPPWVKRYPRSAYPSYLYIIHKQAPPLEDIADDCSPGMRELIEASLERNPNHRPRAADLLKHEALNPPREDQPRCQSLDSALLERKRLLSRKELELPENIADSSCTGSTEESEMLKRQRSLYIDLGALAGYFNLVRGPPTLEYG
Protocol: as §1, §2

ABL1 = ABL1 (Homo sapiens, UniProt P00519); test: Kinome selectivity screen ABL1; format: biochemical; details: 1 μM compound
Sequence of ABL1 (P00519 whole entry): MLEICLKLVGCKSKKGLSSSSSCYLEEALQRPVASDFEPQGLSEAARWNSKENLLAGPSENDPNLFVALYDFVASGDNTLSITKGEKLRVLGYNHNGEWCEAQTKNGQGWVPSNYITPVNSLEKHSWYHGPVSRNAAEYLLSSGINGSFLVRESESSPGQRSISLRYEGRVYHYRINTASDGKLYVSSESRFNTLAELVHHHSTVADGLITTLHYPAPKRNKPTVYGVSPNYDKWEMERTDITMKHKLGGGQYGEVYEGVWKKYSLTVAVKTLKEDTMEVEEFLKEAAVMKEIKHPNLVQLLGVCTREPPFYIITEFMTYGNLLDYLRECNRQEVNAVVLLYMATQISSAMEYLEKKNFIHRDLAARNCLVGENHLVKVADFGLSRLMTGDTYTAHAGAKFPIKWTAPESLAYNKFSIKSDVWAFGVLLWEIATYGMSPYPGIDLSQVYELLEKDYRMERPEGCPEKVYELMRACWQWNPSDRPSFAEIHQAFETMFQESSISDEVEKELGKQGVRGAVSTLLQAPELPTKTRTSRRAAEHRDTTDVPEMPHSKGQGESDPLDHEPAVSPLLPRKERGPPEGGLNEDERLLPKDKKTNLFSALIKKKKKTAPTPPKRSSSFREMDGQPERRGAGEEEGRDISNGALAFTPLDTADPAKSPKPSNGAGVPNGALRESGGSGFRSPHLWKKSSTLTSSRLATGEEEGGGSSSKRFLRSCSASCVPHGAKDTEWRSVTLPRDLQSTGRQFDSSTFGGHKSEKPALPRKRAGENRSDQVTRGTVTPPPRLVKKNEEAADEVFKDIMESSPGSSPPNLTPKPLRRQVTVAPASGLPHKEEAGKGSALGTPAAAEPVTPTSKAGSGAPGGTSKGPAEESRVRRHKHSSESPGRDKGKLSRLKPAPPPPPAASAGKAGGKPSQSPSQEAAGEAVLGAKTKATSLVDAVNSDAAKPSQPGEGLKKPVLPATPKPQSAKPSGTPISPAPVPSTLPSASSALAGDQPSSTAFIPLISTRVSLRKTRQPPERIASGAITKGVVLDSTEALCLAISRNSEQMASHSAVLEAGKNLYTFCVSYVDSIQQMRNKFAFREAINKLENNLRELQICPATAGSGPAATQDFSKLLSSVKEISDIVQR
Protocol: as §1, §2

TEK (Tie2) = TEK (Tie2) (Homo sapiens, UniProt Q02763); test: Kinome selectivity screen TEK; format: biochemical; details: 1 μM compound
Sequence of TEK (Tie2) (Q02763 23-1124): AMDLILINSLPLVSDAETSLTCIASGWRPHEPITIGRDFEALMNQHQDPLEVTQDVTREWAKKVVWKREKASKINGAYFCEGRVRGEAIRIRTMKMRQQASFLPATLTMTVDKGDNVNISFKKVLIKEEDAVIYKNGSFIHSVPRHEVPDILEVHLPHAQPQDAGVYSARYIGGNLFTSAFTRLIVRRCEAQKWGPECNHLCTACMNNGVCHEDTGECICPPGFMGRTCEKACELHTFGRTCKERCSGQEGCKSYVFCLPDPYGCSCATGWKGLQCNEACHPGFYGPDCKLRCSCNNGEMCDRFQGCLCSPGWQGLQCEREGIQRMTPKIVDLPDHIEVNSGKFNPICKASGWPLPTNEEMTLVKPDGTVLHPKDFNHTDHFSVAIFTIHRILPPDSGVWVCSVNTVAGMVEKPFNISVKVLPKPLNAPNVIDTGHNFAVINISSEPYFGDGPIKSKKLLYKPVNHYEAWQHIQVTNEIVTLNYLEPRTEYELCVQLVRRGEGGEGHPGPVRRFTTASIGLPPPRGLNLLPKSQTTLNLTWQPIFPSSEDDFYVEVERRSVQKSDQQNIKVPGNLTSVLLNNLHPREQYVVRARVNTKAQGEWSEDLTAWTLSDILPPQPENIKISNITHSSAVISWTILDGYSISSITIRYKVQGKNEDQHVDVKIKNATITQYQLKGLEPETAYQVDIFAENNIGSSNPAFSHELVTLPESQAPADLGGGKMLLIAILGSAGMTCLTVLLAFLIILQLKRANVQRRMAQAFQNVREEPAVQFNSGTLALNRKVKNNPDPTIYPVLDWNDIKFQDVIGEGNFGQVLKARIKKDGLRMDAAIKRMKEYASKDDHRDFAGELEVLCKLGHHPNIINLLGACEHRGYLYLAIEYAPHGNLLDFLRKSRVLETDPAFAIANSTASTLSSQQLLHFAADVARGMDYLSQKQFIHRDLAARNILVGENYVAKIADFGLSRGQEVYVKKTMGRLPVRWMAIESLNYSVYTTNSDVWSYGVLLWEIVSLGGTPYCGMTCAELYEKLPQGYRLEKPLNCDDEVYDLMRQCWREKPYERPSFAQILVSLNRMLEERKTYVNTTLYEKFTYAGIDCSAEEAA
Protocol: as §1, §2

EGFR (ErbB1) = EGFR (ErbB1) (Homo sapiens, UniProt P00533); test: Kinome selectivity screen EGFR; format: biochemical; details: 1 μM compound
Protocol: as §1, §2

CDK9/cyclin T1 = CDK9/cyclin T1 (Homo sapiens, UniProt P50750); test: Kinome selectivity screen CDK9/cyclin T1; format: biochemical; details: 1 μM compound
Protocol: as §1, §2

JAK3 = JAK3 (Homo sapiens, UniProt P52333); test: Kinome selectivity screen JAK3; format: biochemical; details: 1 μM compound
Protocol: as §1, §2

pERK in HEK293 cells = test: pERK response in HEK293 cells; format: cell-based; details: at 10 μM
Protocol: To rapidly assess the cellular activity (EC50) with full dose response curves of the MKK7 covalent inhibitors, according to some embodiments of the present invention, an in-cell western assay was adapted to a 384 well plate format over traditional western blot, and monitored phospho-JNK (pJNK) levels in response to osmotic shock. We first characterized the dynamics of pJNK in response to sorbitol. Sufficient dynamic range for pJNK is achieved at 20 minutes in HEK293 cells and at 40 minutes in 3T3 and Beas2B cells. The compound's activity was assessed by pre-treating cells with either compound or DMSO for 2 hours, followed by Sorbitol stimulation. The response of pJNK, and its substrates, pc-Jun and pATF2, was measured, as well as pP38, which is a substrate of MKK4 but not MKK7, and pERK in HEK293 cells, and the results are presented in Table 5 below.
With similar values for pcJun (2.26 μM and 1.67 μM, respectively) and pATF2 (2.79 μM 5.19 μM, respectively).

PKN1 (PRK1) = PKN1 (PRK1) (Homo sapiens, UniProt Q16512); test: Kinome selectivity screen PKN1; format: biochemical; details: 1 μM compound
Sequence of PKN1 (PRK1) (Q16512 whole entry): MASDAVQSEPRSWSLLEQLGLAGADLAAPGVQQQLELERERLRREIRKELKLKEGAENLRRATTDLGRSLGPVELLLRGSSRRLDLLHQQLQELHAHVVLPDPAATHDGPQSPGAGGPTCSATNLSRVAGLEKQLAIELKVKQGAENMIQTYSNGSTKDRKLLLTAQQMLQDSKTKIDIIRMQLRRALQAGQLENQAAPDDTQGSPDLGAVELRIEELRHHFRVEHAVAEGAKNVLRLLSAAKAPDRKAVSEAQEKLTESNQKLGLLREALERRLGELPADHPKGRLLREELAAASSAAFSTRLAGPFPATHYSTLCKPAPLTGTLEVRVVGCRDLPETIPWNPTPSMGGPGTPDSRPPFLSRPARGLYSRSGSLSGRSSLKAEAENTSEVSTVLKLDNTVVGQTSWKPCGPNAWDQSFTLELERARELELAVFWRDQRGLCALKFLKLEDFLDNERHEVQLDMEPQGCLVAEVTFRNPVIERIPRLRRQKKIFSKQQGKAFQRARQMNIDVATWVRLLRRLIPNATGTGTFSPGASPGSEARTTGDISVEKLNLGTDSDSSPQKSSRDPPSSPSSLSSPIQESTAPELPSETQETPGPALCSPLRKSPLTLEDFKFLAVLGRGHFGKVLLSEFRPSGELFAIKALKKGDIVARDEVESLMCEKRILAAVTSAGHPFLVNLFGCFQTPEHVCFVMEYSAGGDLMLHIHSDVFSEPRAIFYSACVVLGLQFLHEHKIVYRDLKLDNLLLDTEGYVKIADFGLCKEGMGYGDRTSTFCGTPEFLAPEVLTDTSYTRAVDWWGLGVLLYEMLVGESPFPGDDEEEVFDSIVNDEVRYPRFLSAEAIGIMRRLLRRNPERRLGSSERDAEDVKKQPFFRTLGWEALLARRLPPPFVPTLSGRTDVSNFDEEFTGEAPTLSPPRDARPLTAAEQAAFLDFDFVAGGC
Protocol: as §1, §2

PRKCE (PKC epsilon) = PRKCE (PKC epsilon) (Homo sapiens, UniProt Q02156); test: Kinome selectivity screen PRKCE; format: biochemical; details: 1 μM compound
Protocol: as §1, §2

DCAMKL2 (DCK2) = DCAMKL2 (DCK2) (Homo sapiens, UniProt Q8N568); test: Kinome selectivity screen DCAMKL2; format: biochemical; details: 1 μM compound
Protocol: as §1, §2

MAP4K4 (HGK) = MAP4K4 (HGK) (Homo sapiens, UniProt O95819); test: Kinome selectivity screen MAP4K4; format: biochemical; details: 1 μM compound
Protocol: as §1, §2

PHKG2 = PHKG2 (Homo sapiens, UniProt P15735); test: Kinome selectivity screen PHKG2; format: biochemical; details: 1 μM compound
Protocol: as §1, §2

KDR (VEGFR2) = KDR (VEGFR2) (Homo sapiens, UniProt P35968); test: Kinome selectivity screen KDR; format: biochemical; details: 1 μM compound
Protocol: as §1, §2

PRKCB1 (PKC beta I) = PRKCB1 (PKC beta I) (Homo sapiens, UniProt P05771); test: Kinome selectivity screen PRKCB1; format: biochemical; details: 1 μM compound
Protocol: as §1, §2

pATF2 in HEK293 cells = test: pATF2 inhibition in HEK293 cells; format: cell-based; details: Homo sapiens
Protocol: as §3, §4

PLK1 = PLK1 (Homo sapiens, UniProt P53350); test: Kinome selectivity screen PLK1; format: biochemical; details: 1 μM compound
Protocol: as §1, §2

AURKB (Aurora B) = AURKB (Aurora B) (Homo sapiens, UniProt Q96GD4); test: Kinome selectivity screen AURKB; format: biochemical; details: 1 μM compound
Protocol: as §1, §2

MARK1 (MARK) = MARK1 (MARK) (Homo sapiens, UniProt Q9P0L2); test: Kinome selectivity screen MARK1; format: biochemical; details: 1 μM compound
Sequence of MARK1 (MARK) (Q9P0L2 whole entry): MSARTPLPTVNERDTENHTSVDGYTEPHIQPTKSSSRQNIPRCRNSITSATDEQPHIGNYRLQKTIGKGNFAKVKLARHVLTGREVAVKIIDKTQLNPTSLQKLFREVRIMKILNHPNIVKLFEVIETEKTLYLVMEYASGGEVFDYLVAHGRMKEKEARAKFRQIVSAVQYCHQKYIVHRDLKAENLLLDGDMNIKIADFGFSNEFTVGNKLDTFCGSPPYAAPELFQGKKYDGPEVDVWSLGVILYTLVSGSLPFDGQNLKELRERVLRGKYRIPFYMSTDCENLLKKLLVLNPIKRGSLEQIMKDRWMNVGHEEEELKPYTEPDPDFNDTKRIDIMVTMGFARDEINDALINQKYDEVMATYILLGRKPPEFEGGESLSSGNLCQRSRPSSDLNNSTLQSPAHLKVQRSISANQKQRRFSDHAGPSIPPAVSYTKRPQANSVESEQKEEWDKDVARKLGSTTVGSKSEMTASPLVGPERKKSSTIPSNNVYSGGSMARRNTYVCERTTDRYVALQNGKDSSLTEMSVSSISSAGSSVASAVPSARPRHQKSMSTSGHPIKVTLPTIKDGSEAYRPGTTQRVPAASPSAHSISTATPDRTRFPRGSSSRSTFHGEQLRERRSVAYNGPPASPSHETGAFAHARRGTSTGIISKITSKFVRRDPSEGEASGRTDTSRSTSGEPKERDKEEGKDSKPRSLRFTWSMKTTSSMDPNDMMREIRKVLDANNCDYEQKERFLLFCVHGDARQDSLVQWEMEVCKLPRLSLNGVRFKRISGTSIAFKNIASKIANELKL
Protocol: as §1, §2

SMILES	inhibition at 1 µM [1] [%]	inhibition at 1 µM (CSNK2A1 (CK2 alpha 1)) [%]	EC50 (p-cJun in HEK293 cells) [nM]	inhibition at 1 µM (MAP3K8 (COT)) [%]	inhibition at 1 µM (ABL1) [%]	inhibition at 1 µM (TEK (Tie2)) [%]	inhibition at 1 µM (EGFR (ErbB1)) [%]	inhibition at 1 µM (CDK9/cyclin T1) [%]	inhibition at 1 µM (JAK3) [%]	inhibition at 1 µM (PKN1 (PRK1)) [%]	inhibition at 1 µM (PRKCE (PKC epsilon)) [%]	inhibition at 1 µM (DCAMKL2 (DCK2)) [%]	inhibition at 1 µM (MAP4K4 (HGK)) [%]	inhibition at 1 µM (PHKG2) [%]	inhibition at 1 µM (KDR (VEGFR2)) [%]	inhibition at 1 µM (PRKCB1 (PKC beta I)) [%]	EC50 (pATF2 in HEK293 cells) [nM]	inhibition at 1 µM (PLK1) [%]	inhibition at 1 µM (AURKB (Aurora B)) [%]	inhibition at 1 µM (MARK1 (MARK)) [%]	further results
C=CC(=O)Nc1cccc(-c2n[nH]c3ccccc23)c1 [GO32]	-6	0	2260	-7	2	25	-6	3	89	4	20	-2	58	1	4	1	2790	1	79	14	decrease in pERK (pERK in HEK293 cells): about 25%
C=CC(=O)Nc1cccc(-c2n[nH]c3cc(C)ccc23)c1 [GO80]	-19	-2	1670	-12	1	1	-4	5	64	1	21	-1	42	7	6	5	5190	3	77	4	effect on pERK levels (pERK in HEK293 cells): did not affect
